Results: paper PMC5805707 (Scientific Reports, 2018)

Biological target: T1, cytochrome bd (Mycobacterium tuberculosis, UniProt L7N662)
T1 construct: gene cydA; native complex in inverted membrane vesicles of strain mc^2 6020
Experiment: NADH-driven oxygen consumption of inverted membrane vesicles (Clark electrode); maximal inhibition […]
Format: biochemical

T1 sequence (O06139 entry or part of it): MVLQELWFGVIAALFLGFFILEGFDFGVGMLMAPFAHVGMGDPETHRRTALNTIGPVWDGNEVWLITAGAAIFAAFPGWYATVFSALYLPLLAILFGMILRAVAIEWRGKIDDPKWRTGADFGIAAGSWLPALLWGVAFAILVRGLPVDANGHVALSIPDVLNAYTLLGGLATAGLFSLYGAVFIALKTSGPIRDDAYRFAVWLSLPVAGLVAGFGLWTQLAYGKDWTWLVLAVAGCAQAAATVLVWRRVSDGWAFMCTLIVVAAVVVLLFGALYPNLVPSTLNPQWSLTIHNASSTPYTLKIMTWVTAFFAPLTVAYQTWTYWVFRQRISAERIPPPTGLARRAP
T1 sequence (L7N662 entry or part of it): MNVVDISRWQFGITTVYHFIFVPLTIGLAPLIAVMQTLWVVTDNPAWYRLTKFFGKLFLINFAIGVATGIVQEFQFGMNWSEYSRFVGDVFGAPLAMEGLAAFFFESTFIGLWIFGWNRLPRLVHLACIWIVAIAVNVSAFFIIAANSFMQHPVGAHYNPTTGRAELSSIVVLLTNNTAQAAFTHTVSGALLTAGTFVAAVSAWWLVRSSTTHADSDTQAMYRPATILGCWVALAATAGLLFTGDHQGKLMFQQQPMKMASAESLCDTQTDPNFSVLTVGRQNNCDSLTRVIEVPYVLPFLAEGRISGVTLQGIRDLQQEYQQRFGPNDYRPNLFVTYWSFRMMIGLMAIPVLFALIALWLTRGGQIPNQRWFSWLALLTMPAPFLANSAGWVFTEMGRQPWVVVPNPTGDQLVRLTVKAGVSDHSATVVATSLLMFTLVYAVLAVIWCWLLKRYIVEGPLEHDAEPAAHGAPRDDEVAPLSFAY

SMILES: CC(C)=CCC/C(C)=C/CC/C(C)=C/Cc1c(C)[nH]c2ccccc2c1=O [aurachin D]
- IC50: ~400 nM
